# Earlier results as cited in patent US4746659A, “Diastereomers of 10-alkyl-10-deazaminopterins and process for preparing the same” (priority 1985, dated 1988).
# System: leukemia, as well as other malignancies, including ascitic tumors
# Conditions: warm-blooded lower animals; cited from earlier work
compound,measurement,value
Nc1nc(N)c2nc(CCc3ccc(C(=O)NC(CCC(=O)O)C(=O)O)cc3)cnc2n1 (stereo not shown) [10-deazaminopterin],"amelioration of leukemia and other malignancies, including ascitic tumors",can be ameliorated
